Test results from patent US4614746A, “5-fluorobenzonitrile derivatives for increasing the lean meat to fat ratio and/or enhancing the growth rate of warm-blooded animals” (American Cyanamid Company, priority 1985, dated 1986).

Tests used:
Format in all cases: in vivo
CFI female mice [1] = assay: Antilipogenic evaluation of test compounds - mouse study (fat pad and body weight, 12-day feeding); details: 12 days
Procedure: CFI female mice from Carworth Farms are received when they are six-weeks old. They are housed ten to a cage in air-conditioned rooms (22° C. to 25° C.) with automatically-controlled lights, 14 hours on and ten hours off. The basal diet used in these studies is Purina Laboratory Chow (see description below) which is supplied ad libitum. The following is a description of the diet to which the growth-promoting compounds were added. Meat and bone meal, dried skimmed milk, wheat germ meal, fish meal, animal liver meal, dried beet pulp, ground extruded corn, ground oat groats, soybean meal, dehydrated alfalfa metal, cane molasses, animal fat preserved with BHA, vitamin B12 supplement, calcium pantothenate, choline chloride, folic acid, riboflavin supplement, brewer's dried yeast, thiamin, niacin, vitamin A supplement, D-activated plant sterol, vitamin E supplement, calcium carbonate, dicalcium phosphate, iodized salt, ferric ammonium citrate, iron oxide, manganous oxide, cobalt carbonate, copper oxide, zinc oxide. Water is also allowed ad libitum. Thirteen days after arrival, the mice are weighed in groups of ten and assigned at random to the different treatments. Each of the treatments is tested in three replicates, i.e., in three cages of ten mice each. There are ten cages of ten control mice each. Drugs are mixed in the diet at the dosage level indicated. Feed and water are offered ad libitum for a 12-day test period. Feed spilled is collected during the test period. At the end of the test period, the collected feed is weighed, and the mean feed consumption per cage of ten mice is determined for each treatment. The mice are weighed as a group of ten, and the weight gain determined. The mice are sacrificed by cervical dislocation. The right uterine fat pad of each mouse is removed. The fat pads for each cage of ten mice are weighed as a unit. Reduction in fat pad weights of animals is generally indicative of a reduction of total body fat of the treated animals.

CFI female mice [2] = assay: Antilipogenic evaluation of test compounds - mouse study (Example 6, procedure of Example 4); details: versus related analogues
Procedure: CFI female mice from Carworth Farms are received when they are six-weeks old. They are housed ten to a cage in air-conditioned rooms (22° C. to 25° C.) with automatically-controlled lights, 14 hours on and ten hours off. The basal diet used in these studies is Purina Laboratory Chow (see description below) which is supplied ad libitum.
Thirteen days after arrival, the mice are weighed in groups of ten and assigned at random to the different treatments. Each of the treatments is tested in three replicates, i.e., in three cages of ten mice each. There are ten cages of ten control mice each. Drugs are mixed in the diet at the dosage level indicated. Feed and water are offered ad libitum for a 12-day test period. Feed spilled is collected during the test period. At the end of the test period, the collected feed is weighed, and the mean feed consumption per cage of ten mice is determined for each treatment. The mice are weighed as a group of ten, and the weight gain determined. The mice are sacrificed by cervical dislocation. The right uterine fat pad of each mouse is removed. The fat pads for each cage of ten mice are weighed as a unit. Reduction in fat pad weights of animals is generally indicative of a reduction of total body fat of the treated animals.
Following the procedure of Example 4, the analogues of the compounds of the invention in the subject Application are evaluated as antilipogenic agents.

[3] = test system: Hubbard X Hubbard Crossbred Chicks; assay: Evaluation as feed additive in poultry (growth rate, feed utilization, carcass yield), seven weeks; details: for Gain: seven weeks; for FE (Feed efficiency): feed/gain ratio; for FE, Percent (±) Control: percent improvement
Text: Evaluation of 3-[2-(tert-butylamino)-1-hydroxyethyl]-5-fluorobenzonitrile as an animal feed additive for (1) the enhancement of the growth rate of poultry, (2) improvement in feed utilization thereby, (3) increase in the deposition of muscle tissue or protein in said birds and (4) improvement in the carcass quality of treated birds
One-day old Hubbard X Hubbard Crossbred Chicks, randomly allotted to pens of ten chicks (five males and five females) each.
Eight pens of chicks are used for unmedicated controls, and six pens of chicks are used at each level of drug. The duration of the experiment is seven weeks.
The controls are offered an unmedicated diet of Broiler Ration No. 453 (composition given below) and water ad libitum. Medicated chicks are offered the same diet containing the test drug at the levels indicated above, and water ad libitum. The weight of the chicks is determined at the beginning and on completion of the experiments. Weight gains and the amount of feed consumed are also determined. In addition, ten males and ten females from each group are randomly selected and sacrificed by decapitation. These birds were bled, the feathers, feet, and viscera removed, and the resulting carcass weighed.
The thus-obtained data are averaged and summarized in Table IV below, wherein the percent improvement in weight gains and feed/gain ratios are given.

wether lambs = assay: Evaluation in wether lambs (growth, feed efficiency, muscle, fat, carcass), eight weeks; details: for ADG (Average daily gain): eight weeks; for Subcutaneous Fat Depth Over Loin / Muscle Cross-Sectional Area: 12th rib; for Muscle Cross-Sectional Area: longissimus dorsi
Text: Evaluation of 3-[2-(tert-butylamino)1-hydroxyethyl]-5-fluorobenzonitrile for growth enhancement, feed efficiency improvement, increased deposition of muscle tissue and/or protein and improvement in carcass composition
To determine the effect of feeding experimental compounds to ruminants, wether lambs are randomly allotted to pens in groups of five. Three replications per treatment are used. The lambs are weighed and permitted feed and water ad libitum. The feed is weighed daily, and uneaten feed from the previous day is collected and weighed. Test lambs receive the same diet as control animals, but with the addition of experimental compound at a concentration of from 5 ppm to 20 ppm. The tests are conducted for a period of eight weeks at the end of which the lambs are again weighed, and the feed consumed calculated. The lambs are then necropsied. Eight animals per treatment are dressed, and the average cross-sectional area of the longissimus dorsi and depth of subcutaneous fat measured at the 12th rib.

In the case of `CCNCC(O)c1cc(F)cc(C#N)c1` (stereo not shown) [drawing 16], the “% Change in Body Weight vs controls” value (CFI female mice [1]; 50 ppm in diet) is reported as “+18.8%”, the “% Reduction in Fat Pad Weight vs Controls” value (“% Reduction” below) (CFI female mice [1]; 50 ppm in diet) is reported as “+4.3%” and the “% Change in Body Weight vs controls” value (CFI female mice [1]; 100 ppm in diet) is reported as -4.1%. For the same molecule, the “% Reduction” value (CFI female mice [1]; 100 ppm in diet) was -33.3%, the “% Change in Body Weight vs controls” value (CFI female mice [1]; 200 ppm in diet) was “+25.3%” and the “% Reduction” value (CFI female mice [1]; 200 ppm in diet) was -37.9%.
`CC(C)(C)NCC(O)c1cc(F)cc(C#N)c1` (stereo not shown) [3-[2-(tert-Butylamino)-1-hydroxyethyl]-5-fluorobenzonitrile] was tested, and the “effectiveness as an antilipogenic agent” value (CFI female mice [2]) was “markedly more effective as an antilipogenic agent than its related aanalogues”, the “Carcass Yield” value ([3]; 0.25 ppm in diet) was 69.46% of live weight and the “Carcass Yield, Percent (±) Control” value ([3]; 0.25 ppm in diet) was “+1.0%”. For the same molecule, the “Feed Consumed” value ([3]; 0.25 ppm in diet) was 2.576 kg, the “Feed Consumed, Percent (±) Control” value ([3]; 0.25 ppm in diet) was “+0.4%” and the “Gain, Percent (±) Control” value ([3]; 0.25 ppm in diet) was “+2.5%”. The Gain ([3]; 0.25 ppm in diet) was 1.105 kg, the “FE (Feed efficiency)” value ([3]; 0.25 ppm in diet) was 2.333 and the “FE, Percent (±) Control” value ([3]; 0.25 ppm in diet) was “+2.1%”. For the same molecule, the “Carcass Yield” value ([3]; 0.5 ppm in diet) was 68.73% of live weight, the “Carcass Yield, Percent (±) Control” value ([3]; 0.5 ppm in diet) was 0.0% and the “Feed Consumed” value ([3]; 0.5 ppm in diet) was 2.571 kg. The “Feed Consumed, Percent (±) Control” value ([3]; 0.5 ppm in diet) was “+0.2%”, the “Gain, Percent (±) Control” value ([3]; 0.5 ppm in diet) was “+5.0%” and the Gain ([3]; 0.5 ppm in diet) was 1.132 kg. The “FE (Feed efficiency)” value ([3]; 0.5 ppm in diet) was 2.274, the “FE, Percent (±) Control” value ([3]; 0.5 ppm in diet) was “+4.6%” and the “Carcass Yield” value ([3]; 1 ppm in diet) was 69.66% of live weight. For the same molecule, the “Carcass Yield, Percent (±) Control” value ([3]; 1 ppm in diet) was “+1.3%”, the “Feed Consumed” value ([3]; 1 ppm in diet) was 2.573 kg and the “Feed Consumed, Percent (±) Control” value ([3]; 1 ppm in diet) was “+0.2%”. For the same molecule, the “Gain, Percent (±) Control” value ([3]; 1 ppm in diet) was “+1.9%”, the Gain ([3]; 1 ppm in diet) was 1.097 kg and the “FE (Feed efficiency)” value ([3]; 1 ppm in diet) was 2.350. The “FE, Percent (±) Control” value ([3]; 1 ppm in diet) was “+1.4%”, the “Carcass Yield” value ([3]; 2 ppm in diet) was 69.30% of live weight and the “Carcass Yield, Percent (±) Control” value ([3]; 2 ppm in diet) was “+0.8%”. The “Feed Consumed” value ([3]; 2 ppm in diet) was 2.578 kg, the “Feed Consumed, Percent (±) Control” value ([3]; 2 ppm in diet) was “+0.4%” and the “Gain, Percent (±) Control” value ([3]; 2 ppm in diet) was “+3.3%”. For the same molecule, the Gain ([3]; 2 ppm in diet) was 1.114 kg, the “FE (Feed efficiency)” value ([3]; 2 ppm in diet) was 2.315 and the “FE, Percent (±) Control” value ([3]; 2 ppm in diet) was “+3.0%”. The “AD Feed Consumed (Average daily feed consumed)” value (wether lambs; 5 ppm in diet) was 1.43 kg/day, the “AD Feed Consumed, Percent (±) Control” value (wether lambs; 5 ppm in diet) was “+2.9%” and the “ADG, Percent (±) Control” value (wether lambs; 5 ppm in diet) was “+11.3%”. The “Carcass Yield” value (wether lambs; 5 ppm in diet) was 51.80% of live weight, the “Carcass Yield, Percent (±) Control” value (wether lambs; 5 ppm in diet) was “+1.8%” and the “FE (Feed efficiency)” value (wether lambs; 5 ppm in diet) was 6.36. For the same molecule, the “FE, Percent (±) Control” value (wether lambs; 5 ppm in diet) was “+7.0%”, the “Muscle Cross-Sectional Area, Percent (±) Control” value (wether lambs; 5 ppm in diet) was “+6.8%” and the “Subcutaneous Fat Depth Over Loin, Percent (±) Control” value (wether lambs; 5 ppm in diet) was “+23.8%”. For the same molecule, the “ADG (Average daily gain)” value (wether lambs; 5 ppm in diet) was 226 g, the “Subcutaneous Fat Depth Over Loin” value (wether lambs; 5 ppm in diet) was 3.2 cm and the “Muscle Cross-Sectional Area” value (wether lambs; 5 ppm in diet) was 17.69 cm^2. For the same molecule, the “AD Feed Consumed (Average daily feed consumed)” value (wether lambs; 10 ppm in diet) was 1.50 kg/day, the “AD Feed Consumed, Percent (±) Control” value (wether lambs; 10 ppm in diet) was “+7.9%” and the “ADG, Percent (±) Control” value (wether lambs; 10 ppm in diet) was “+24.6%”. The “Carcass Yield” value (wether lambs; 10 ppm in diet) was 51.52% of live weight, the “Carcass Yield, Percent (±) Control” value (wether lambs; 10 ppm in diet) was “+1.3%” and the “FE (Feed efficiency)” value (wether lambs; 10 ppm in diet) was 5.91. The “FE, Percent (±) Control” value (wether lambs; 10 ppm in diet) was “+13.6%”, the “Muscle Cross-Sectional Area, Percent (±) Control” value (wether lambs; 10 ppm in diet) was “+11.4%” and the “Subcutaneous Fat Depth Over Loin, Percent (±) Control” value (wether lambs; 10 ppm in diet) was “+35.7%”. The “ADG (Average daily gain)” value (wether lambs; 10 ppm in diet) was 253 g, the “Subcutaneous Fat Depth Over Loin” value (wether lambs; 10 ppm in diet) was 2.7 cm and the “Muscle Cross-Sectional Area” value (wether lambs; 10 ppm in diet) was 18.44 cm^2. For the same molecule, the “AD Feed Consumed (Average daily feed consumed)” value (wether lambs; 20 ppm in diet) was 1.39 kg/day, the “AD Feed Consumed, Percent (±) Control” value (wether lambs; 20 ppm in diet) was “+0.0%” and the “ADG, Percent (±) Control” value (wether lambs; 20 ppm in diet) was “+15.3%”. For the same molecule, the “Carcass Yield” value (wether lambs; 20 ppm in diet) was 54.15% of live weight, the “Carcass Yield, Percent (±) Control” value (wether lambs; 20 ppm in diet) was “+6.5%” and the “FE (Feed efficiency)” value (wether lambs; 20 ppm in diet) was 5.92. For the same molecule, the “FE, Percent (±) Control” value (wether lambs; 20 ppm in diet) was “+13.5%”, the “Muscle Cross-Sectional Area, Percent (±) Control” value (wether lambs; 20 ppm in diet) was “+24.2%” and the “Subcutaneous Fat Depth Over Loin, Percent (±) Control” value (wether lambs; 20 ppm in diet) was “+57.1%”. For the same molecule, the “ADG (Average daily gain)” value (wether lambs; 20 ppm in diet) was 234 g, the “Subcutaneous Fat Depth Over Loin” value (wether lambs; 20 ppm in diet) was 1.8 cm and the “Muscle Cross-Sectional Area” value (wether lambs; 20 ppm in diet) was 20.56 cm^2.
For `CC(C)N(CC(O)c1cc(F)cc(C#N)c1)C(C)C` (stereo not shown) [drawing 17], the “% Change in Body Weight vs controls” value (CFI female mice [1]; 200 ppm in diet) was “+19.05%”, the “% Reduction” value (CFI female mice [1]; 200 ppm in diet) was -19.36% and the “% Change in Body Weight vs controls” value (CFI female mice [1]; second dose, not given) was -2.38%. The “% Reduction” value (CFI female mice [1]; second dose, not given) was -15.39%.
With `CCCC(C)NCC(O)c1cc(F)cc(C#N)c1` (stereo not shown) [drawing 15] the “% Change in Body Weight vs controls” value (CFI female mice [1]; 50 ppm in diet) was “+15.9%”, the “% Reduction” value (CFI female mice [1]; 50 ppm in diet) was -5.6% and the “% Change in Body Weight vs controls” value (CFI female mice [1]; 100 ppm in diet) was “+1.2%”. For the same molecule, the “% Reduction” value (CFI female mice [1]; 100 ppm in diet) was -15.5%, the “% Change in Body Weight vs controls” value (CFI female mice [1]; 200 ppm in diet) was “+22.4%” and the “% Reduction” value (CFI female mice [1]; 200 ppm in diet) was -22.8%.
